Laboratory results published in paper PMC4312132, “Phenylalanine in the Pore of the Erwinia Ligand-Gated Ion Channel Modulates Picrotoxinin Potency but Not Receptor Function” (Biochemistry, 2014).
Like-named read-outs stand apart in the source and are kept apart here.

Columns and labels:
wild type ELIC [1] = target: T1, wild type ELIC (Dickeya chrysanthemi, UniProt P0C7B7); assay: GABA activation of wild-type ELIC, two-electrode voltage clamp in Xenopus oocytes; format: cell-based, Erwinia chrysanthemii
T1 construct: expressed in transfected cells; host or cells: Xenopus laevis oocytes (cRNA injection)
Procedure: (§1) Xenopus laevis oocyte-positive females were purchased from NASCO (Fort Atkinson, WI) and maintained according to standard methods. Harvested stage V and VI Xenopus oocytes were washed in four changes of Ca^2+-free ND96 [96 mM NaCl, 2 mM KCl, 1 mM MgCl2, and 5 mM HEPES (pH 7.5)], defolliculated in 1.5 mg mL^–1 collagenase type 1A for approximately 2 h, washed again in four changes of ND96, and stored in ND96 at 16 °C containing 2.5 mM sodium pyruvate, […] gentamycin, and 0.7 mM theophylline.
(§2) ELIC (GenBank accession number ADN00343.1) was kindly provided by C. Ulens. For expression in Xenopus oocytes, it was cloned into pGEMHE with the signal sequence of the human α7 nACh receptor. Site-directed mutagenesis was performed with the QuikChange mutagenesis kit (Stratagene, La Jolla, CA). cRNA was transcribed in vitro from the linearized pGEMHE cDNA template using the mMessage mMachine T7 transcription kit (Ambion, Austin, TX). Stage V and VI oocytes were injected with 20 ng of cRNA, and currents were recorded 1–3 days postinjection.
(§3) Using two-electrode voltage clamp, Xenopus oocytes were clamped at −60 mV using an OC-725 amplifier (Warner Instruments, Hamden, CT), Digidata 1322A, and the Strathclyde Electrophysiology Software Package (Department of Physiology and Pharmacology, University of Strathclyde, Glasgow, U.K.). Currents were recorded at 5 kHz and filtered at a frequency of 1 kHz. Microelectrodes were fabricated from borosilicate glass (GC120TF-10, Harvard Apparatus, Edenbridge, Kent, U.K.) using a one-stage horizontal pull (P-87, Sutter Instrument Co., Novato, CA) and filled with 3 M KCl. Pipette resistances ranged from 1.0 to 2.0 MΩ. Oocytes were perfused with ND96 at a constant rate of 12 mL min^–1 with complete solution exchange within 5 s. Drug application was accomplished via a simple gravity-fed system calibrated to run at the same rate. Inhibition by test compounds was measured at the GABA EC50 for each mutant.
Analysis and curve fitting were performed using Prism version 4.03 (GraphPad Software, San Diego, CA). […]

F16′L ELIC = target: T2, F16′L ELIC (Dickeya chrysanthemi, UniProt P0C7B7, F246L); assay: GABA activation of F16′L ELIC, two-electrode voltage clamp in Xenopus oocytes; format: cell-based, Erwinia chrysanthemii
T2 construct: expressed in transfected cells; host or cells: Xenopus laevis oocytes (cRNA injection)
Procedure: as §1
(§4) ELIC (GenBank accession number ADN00343.1) was kindly provided by C. Ulens. For expression in Xenopus oocytes, it was cloned into pGEMHE with the signal sequence of the human α7 nACh receptor. […] Stage V and VI oocytes were injected with 20 ng of cRNA, and currents were recorded 1–3 days postinjection.
(§5) Using two-electrode voltage clamp, Xenopus oocytes were clamped at −60 mV using an OC-725 amplifier (Warner Instruments, Hamden, CT), Digidata 1322A, and the Strathclyde Electrophysiology Software Package (Department of Physiology and Pharmacology, University of Strathclyde, Glasgow, U.K.). Currents were recorded at 5 kHz and filtered at a frequency of 1 kHz. […] Inhibition by test compounds was measured at the GABA EC50 for each mutant. […]

F16′Y ELIC = target: T3, F16′Y ELIC (Dickeya chrysanthemi, UniProt P0C7B7, F246Y); assay: GABA activation of F16′Y ELIC, two-electrode voltage clamp in Xenopus oocytes; format: cell-based, Erwinia chrysanthemii; details: F16′Y ELIC; GABA concentration–response
T3 construct: expressed in transfected cells; host or cells: Xenopus laevis oocytes (cRNA injection)

T6′A ELIC [2] = target: T4, T6′A ELIC (Dickeya chrysanthemi, UniProt P0C7B7, T236A); assay: GABA activation of T6′A ELIC, two-electrode voltage clamp in Xenopus oocytes; format: cell-based, Erwinia chrysanthemii; details: T6′A ELIC; GABA concentration–response
T4 construct: expressed in transfected cells; host or cells: Xenopus laevis oocytes (cRNA injection)

F16′S ELIC [3] = target: T5, F16′S ELIC (Dickeya chrysanthemi, UniProt P0C7B7, F246S); assay: GABA activation of F16′S ELIC, two-electrode voltage clamp in Xenopus oocytes; format: cell-based, Erwinia chrysanthemii; details: F16′S ELIC; GABA concentration–response
T5 construct: expressed in transfected cells; host or cells: Xenopus laevis oocytes (cRNA injection)

Q2′A ELIC = target: T6, Q2′A ELIC (Dickeya chrysanthemi, UniProt P0C7B7, Q232A); assay: GABA activation of Q2′A ELIC, two-electrode voltage clamp in Xenopus oocytes; format: cell-based, Erwinia chrysanthemii; details: Q2′A receptors
T6 construct: expressed in transfected cells; host or cells: Xenopus laevis oocytes (cRNA injection)
Procedure: as §1, §4, §5

T6′S ELIC [4] = target: T7, T6′S ELIC (Dickeya chrysanthemi, UniProt P0C7B7, T236S); assay: GABA activation of T6′S ELIC, two-electrode voltage clamp in Xenopus oocytes; format: cell-based, Erwinia chrysanthemii; details: T6′S ELIC; GABA concentration–response
T7 construct: expressed in transfected cells; host or cells: Xenopus laevis oocytes (cRNA injection)

F16′A ELIC [5] = target: T8, F16′A ELIC (Dickeya chrysanthemi, UniProt P0C7B7, F246A); assay: GABA activation of F16′A ELIC, two-electrode voltage clamp in Xenopus oocytes; format: cell-based, Erwinia chrysanthemii; details: F16′A ELIC; GABA concentration–response
T8 construct: expressed in transfected cells; host or cells: Xenopus laevis oocytes (cRNA injection)
Procedure: as §1, §4, §5

Q2′N ELIC [6] = target: T9, Q2′N ELIC (Dickeya chrysanthemi, UniProt P0C7B7, Q232N); assay: GABA activation of Q2′N ELIC, two-electrode voltage clamp in Xenopus oocytes; format: cell-based, Erwinia chrysanthemii; details: Q2′N ELIC; GABA concentration–response
T9 construct: expressed in transfected cells; host or cells: Xenopus laevis oocytes (cRNA injection)

F16′W ELIC [7] = target: T10, F16′W ELIC (Dickeya chrysanthemi, UniProt P0C7B7, F246W); assay: GABA activation of F16′W ELIC, two-electrode voltage clamp in Xenopus oocytes; format: cell-based, Erwinia chrysanthemii; details: F16′W ELIC; GABA concentration–response
T10 construct: expressed in transfected cells; host or cells: Xenopus laevis oocytes (cRNA injection)

F16′D ELIC [8] = target: T11, F16′D ELIC (Dickeya chrysanthemi, UniProt P0C7B7, F246D); assay: GABA activation of F16′D ELIC, two-electrode voltage clamp in Xenopus oocytes; format: cell-based, Erwinia chrysanthemii; details: F16′D ELIC; GABA concentration–response
T11 construct: expressed in transfected cells; host or cells: Xenopus laevis oocytes (cRNA injection)

F16′E ELIC [9] = target: T12, F16′E ELIC (Dickeya chrysanthemi, UniProt P0C7B7, F246E); assay: GABA activation of F16′E ELIC, two-electrode voltage clamp in Xenopus oocytes; format: cell-based, Erwinia chrysanthemii
T12 construct: expressed in transfected cells; host or cells: Xenopus laevis oocytes (cRNA injection)
Procedure: as §1, §4, §5

F16′S/T6′S ELIC = target: T13, F16′S/T6′S ELIC (Dickeya chrysanthemi, UniProt P0C7B7, F246S/T236S); assay: GABA activation of F16′S/T6′S ELIC, two-electrode voltage clamp in Xenopus oocytes; format: cell-based, Erwinia chrysanthemii; details: F16′S/T6′S ELIC; GABA concentration–response
T13 construct: expressed in transfected cells; host or cells: Xenopus laevis oocytes (cRNA injection)

F16′T ELIC [10] = target: T14, F16′T ELIC (Dickeya chrysanthemi, UniProt P0C7B7, F246T); assay: GABA activation of F16′T ELIC, two-electrode voltage clamp in Xenopus oocytes; format: cell-based, Erwinia chrysanthemii; details: F16′T ELIC; GABA concentration–response
T14 construct: expressed in transfected cells; host or cells: Xenopus laevis oocytes (cRNA injection)

F16′Q ELIC = target: T15, F16′Q ELIC (Dickeya chrysanthemi, UniProt P0C7B7, F246Q); assay: GABA activation of F16′Q ELIC, two-electrode voltage clamp in Xenopus oocytes; format: cell-based, Erwinia chrysanthemii; details: F16′Q ELIC; GABA concentration–response
T15 construct: expressed in transfected cells; host or cells: Xenopus laevis oocytes (cRNA injection)

F16′D ELIC [11] = target: T11, F16′D ELIC; assay: Inhibition of GABA-elicited currents of F16′D ELIC in Xenopus oocytes; format: cell-based, Erwinia chrysanthemii; details: F16′D ELIC; inhibition curve
Procedure: as §1, §4, §5

F16′S ELIC [12] = target: T5, F16′S ELIC; assay: Inhibition of GABA-elicited currents of F16′S ELIC in Xenopus oocytes; format: cell-based, Erwinia chrysanthemii; details: F16′S ELIC
F16′A ELIC [13] = target: T8, F16′A ELIC; assay: Inhibition of GABA-elicited currents of F16′A ELIC in Xenopus oocytes; format: cell-based, Erwinia chrysanthemii; details: F16′A ELIC; inhibition curve
F16′T ELIC [14] = target: T14, F16′T ELIC; assay: Inhibition of GABA-elicited currents of F16′T ELIC in Xenopus oocytes; format: cell-based, Erwinia chrysanthemii; details: F16′T ELIC; inhibition curve
T6′S ELIC [15] = target: T7, T6′S ELIC; assay: Inhibition of GABA-elicited currents of T6′S ELIC in Xenopus oocytes; format: cell-based, Erwinia chrysanthemii; details: T6′S ELIC; inhibition curve
wild type ELIC [16] = target: T1, wild type ELIC; assay: Inhibition of GABA-elicited currents of wild-type ELIC in Xenopus oocytes; format: cell-based, Erwinia chrysanthemii
Procedure: as §1, §2, §3
Analysis and curve fitting were performed using Prism version 4.03 (GraphPad Software, San Diego, CA). Concentration–response data for each oocyte were normalized to the maximal current for that oocyte and the mean ± standard error of the mean (SEM) for a series of oocytes pooled and plotted against agonist or antagonist concentration and iteratively fit to the four-parameter logistic equation. Statistical analysis was performed using a Student’s t test.

F16′E ELIC [17] = target: T12, F16′E ELIC; assay: Inhibition of GABA-elicited currents of F16′E ELIC in Xenopus oocytes; format: cell-based, Erwinia chrysanthemii; details: F16′E ELIC; inhibition curve
Q2′N ELIC [18] = target: T9, Q2′N ELIC; assay: Inhibition of GABA-elicited currents of Q2′N ELIC in Xenopus oocytes; format: cell-based, Erwinia chrysanthemii; details: Q2′N ELIC; inhibition curve
GLIC = tested on: GLIC; parameters: method as in PMID 22677470, PMID 22208189; details: cited from earlier work
T6′A ELIC [19] = target: T4, T6′A ELIC; assay: Inhibition of GABA-elicited currents of T6′A ELIC in Xenopus oocytes; format: cell-based, Erwinia chrysanthemii; details: T6′A ELIC; inhibition curve
Procedure: as §1, §4, §5

F16′W ELIC [20] = target: T10, F16′W ELIC; assay: Inhibition of GABA-elicited currents of F16′W ELIC in Xenopus oocytes; format: cell-based, Erwinia chrysanthemii; details: F16′W ELIC

T1 sequence (P0C7B7 whole entry): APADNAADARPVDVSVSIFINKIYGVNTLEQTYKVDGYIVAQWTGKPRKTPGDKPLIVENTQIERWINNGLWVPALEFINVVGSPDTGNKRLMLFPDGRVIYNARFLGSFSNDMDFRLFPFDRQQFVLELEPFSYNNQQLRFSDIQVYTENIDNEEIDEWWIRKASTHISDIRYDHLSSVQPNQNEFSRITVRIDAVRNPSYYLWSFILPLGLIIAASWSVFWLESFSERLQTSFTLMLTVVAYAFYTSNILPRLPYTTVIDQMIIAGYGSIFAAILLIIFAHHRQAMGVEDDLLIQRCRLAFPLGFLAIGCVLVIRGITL
T5 sequence (P0C7B7 whole entry F246S): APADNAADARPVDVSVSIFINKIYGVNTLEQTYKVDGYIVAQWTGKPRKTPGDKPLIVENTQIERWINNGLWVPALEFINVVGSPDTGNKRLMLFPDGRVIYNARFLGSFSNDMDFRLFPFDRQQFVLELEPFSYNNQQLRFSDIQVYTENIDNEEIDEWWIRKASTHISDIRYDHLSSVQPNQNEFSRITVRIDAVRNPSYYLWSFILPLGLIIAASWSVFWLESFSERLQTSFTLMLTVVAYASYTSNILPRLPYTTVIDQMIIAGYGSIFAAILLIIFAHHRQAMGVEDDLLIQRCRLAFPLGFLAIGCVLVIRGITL
T12 sequence (P0C7B7 whole entry F246E): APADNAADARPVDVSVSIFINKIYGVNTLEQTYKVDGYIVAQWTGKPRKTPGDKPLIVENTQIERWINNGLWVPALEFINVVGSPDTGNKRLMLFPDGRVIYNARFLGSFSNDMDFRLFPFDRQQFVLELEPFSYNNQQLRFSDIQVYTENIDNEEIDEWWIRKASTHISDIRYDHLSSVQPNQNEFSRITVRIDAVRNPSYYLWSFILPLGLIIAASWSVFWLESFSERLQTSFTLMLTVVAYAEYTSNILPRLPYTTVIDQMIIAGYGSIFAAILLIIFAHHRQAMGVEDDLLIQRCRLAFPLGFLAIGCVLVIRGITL
T10 sequence (P0C7B7 whole entry F246W): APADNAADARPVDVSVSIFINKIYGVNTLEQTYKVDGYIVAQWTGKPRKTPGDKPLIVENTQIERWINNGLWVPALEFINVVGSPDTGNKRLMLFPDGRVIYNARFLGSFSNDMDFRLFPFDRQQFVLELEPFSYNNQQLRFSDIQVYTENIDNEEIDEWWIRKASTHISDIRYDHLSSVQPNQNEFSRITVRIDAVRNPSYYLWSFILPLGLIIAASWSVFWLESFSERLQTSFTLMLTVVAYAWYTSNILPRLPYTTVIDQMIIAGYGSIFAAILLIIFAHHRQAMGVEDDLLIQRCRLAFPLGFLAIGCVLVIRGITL
T9 sequence (P0C7B7 whole entry Q232N): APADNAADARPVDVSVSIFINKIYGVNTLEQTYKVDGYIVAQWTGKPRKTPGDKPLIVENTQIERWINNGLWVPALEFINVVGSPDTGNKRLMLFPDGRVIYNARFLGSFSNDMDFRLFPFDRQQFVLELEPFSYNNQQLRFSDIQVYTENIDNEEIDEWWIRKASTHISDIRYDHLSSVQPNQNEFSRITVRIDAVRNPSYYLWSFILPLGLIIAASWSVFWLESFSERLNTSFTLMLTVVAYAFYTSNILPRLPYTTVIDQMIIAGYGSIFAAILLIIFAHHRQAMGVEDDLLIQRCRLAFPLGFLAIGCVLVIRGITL
T8 sequence (P0C7B7 whole entry F246A): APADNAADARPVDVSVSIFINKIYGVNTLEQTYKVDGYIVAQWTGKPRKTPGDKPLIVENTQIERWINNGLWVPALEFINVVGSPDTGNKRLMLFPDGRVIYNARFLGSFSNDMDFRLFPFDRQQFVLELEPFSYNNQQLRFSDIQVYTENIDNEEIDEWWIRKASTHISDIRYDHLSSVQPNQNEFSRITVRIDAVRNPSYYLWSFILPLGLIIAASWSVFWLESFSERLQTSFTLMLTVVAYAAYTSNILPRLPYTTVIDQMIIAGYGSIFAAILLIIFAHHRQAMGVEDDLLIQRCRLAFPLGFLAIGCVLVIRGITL
T4 sequence (P0C7B7 whole entry T236A): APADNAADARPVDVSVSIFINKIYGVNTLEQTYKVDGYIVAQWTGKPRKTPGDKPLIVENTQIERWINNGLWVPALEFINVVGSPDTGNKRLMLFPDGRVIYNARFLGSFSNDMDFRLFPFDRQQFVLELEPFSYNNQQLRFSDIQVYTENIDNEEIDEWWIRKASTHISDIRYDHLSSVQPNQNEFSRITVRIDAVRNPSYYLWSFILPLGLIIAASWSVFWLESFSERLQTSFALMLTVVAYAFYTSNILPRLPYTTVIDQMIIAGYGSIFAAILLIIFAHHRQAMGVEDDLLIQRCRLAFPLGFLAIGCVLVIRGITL
T11 sequence (P0C7B7 whole entry F246D): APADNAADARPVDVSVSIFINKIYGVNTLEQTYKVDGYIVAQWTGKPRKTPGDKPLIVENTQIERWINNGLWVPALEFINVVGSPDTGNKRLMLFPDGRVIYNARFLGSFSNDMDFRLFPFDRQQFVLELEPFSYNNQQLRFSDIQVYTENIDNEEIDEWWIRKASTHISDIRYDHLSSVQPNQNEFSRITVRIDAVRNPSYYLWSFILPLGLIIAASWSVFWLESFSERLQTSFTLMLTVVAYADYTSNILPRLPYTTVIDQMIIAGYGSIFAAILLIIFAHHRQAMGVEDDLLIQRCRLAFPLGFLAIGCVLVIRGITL
T14 sequence (P0C7B7 whole entry F246T): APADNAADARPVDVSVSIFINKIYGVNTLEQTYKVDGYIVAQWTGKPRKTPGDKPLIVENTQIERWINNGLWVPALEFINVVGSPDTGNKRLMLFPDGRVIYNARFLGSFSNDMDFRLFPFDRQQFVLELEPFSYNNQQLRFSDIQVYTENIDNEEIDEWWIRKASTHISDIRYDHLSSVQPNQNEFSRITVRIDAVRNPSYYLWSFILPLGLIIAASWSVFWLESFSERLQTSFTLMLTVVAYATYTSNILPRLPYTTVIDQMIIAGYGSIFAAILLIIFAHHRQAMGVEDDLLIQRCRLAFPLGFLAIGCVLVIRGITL
T2 sequence (P0C7B7 whole entry F246L): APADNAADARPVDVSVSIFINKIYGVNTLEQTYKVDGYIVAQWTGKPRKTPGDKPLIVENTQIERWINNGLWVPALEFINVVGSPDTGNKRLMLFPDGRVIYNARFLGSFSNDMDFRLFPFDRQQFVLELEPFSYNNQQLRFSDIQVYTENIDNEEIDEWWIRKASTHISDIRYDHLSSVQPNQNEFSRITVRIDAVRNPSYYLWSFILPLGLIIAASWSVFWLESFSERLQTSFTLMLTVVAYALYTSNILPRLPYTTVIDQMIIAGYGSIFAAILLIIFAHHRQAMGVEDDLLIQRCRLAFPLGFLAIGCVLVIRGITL
T7 sequence (P0C7B7 whole entry T236S): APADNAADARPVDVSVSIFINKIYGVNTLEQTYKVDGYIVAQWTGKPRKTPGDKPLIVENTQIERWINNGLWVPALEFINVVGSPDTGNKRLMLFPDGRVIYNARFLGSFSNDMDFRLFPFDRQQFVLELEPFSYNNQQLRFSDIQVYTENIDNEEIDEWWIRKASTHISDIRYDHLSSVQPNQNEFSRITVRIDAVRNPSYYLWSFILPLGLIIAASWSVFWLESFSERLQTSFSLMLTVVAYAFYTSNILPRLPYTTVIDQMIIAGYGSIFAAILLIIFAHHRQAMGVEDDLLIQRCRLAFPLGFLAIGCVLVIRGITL
T3 sequence (P0C7B7 whole entry F246Y): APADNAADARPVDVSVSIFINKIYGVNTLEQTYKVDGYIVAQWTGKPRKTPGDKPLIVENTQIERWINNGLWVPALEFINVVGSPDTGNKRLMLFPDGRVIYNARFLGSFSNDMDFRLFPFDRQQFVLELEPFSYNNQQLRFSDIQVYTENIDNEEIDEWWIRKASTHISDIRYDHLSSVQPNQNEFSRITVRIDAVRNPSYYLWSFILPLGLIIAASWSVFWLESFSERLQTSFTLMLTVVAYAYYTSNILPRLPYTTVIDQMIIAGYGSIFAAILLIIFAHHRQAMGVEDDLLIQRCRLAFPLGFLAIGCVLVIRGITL
T13 sequence (P0C7B7 whole entry T236S/F246S): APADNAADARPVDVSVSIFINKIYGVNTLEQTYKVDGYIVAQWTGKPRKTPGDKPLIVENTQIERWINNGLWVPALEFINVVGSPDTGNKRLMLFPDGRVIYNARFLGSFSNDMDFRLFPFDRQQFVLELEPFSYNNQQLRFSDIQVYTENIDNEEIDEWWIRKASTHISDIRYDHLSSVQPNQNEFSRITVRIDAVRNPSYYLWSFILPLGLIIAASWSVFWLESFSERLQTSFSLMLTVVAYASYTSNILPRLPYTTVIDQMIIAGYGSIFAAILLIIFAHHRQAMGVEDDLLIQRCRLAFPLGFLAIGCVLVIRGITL
T15 sequence (P0C7B7 whole entry F246Q): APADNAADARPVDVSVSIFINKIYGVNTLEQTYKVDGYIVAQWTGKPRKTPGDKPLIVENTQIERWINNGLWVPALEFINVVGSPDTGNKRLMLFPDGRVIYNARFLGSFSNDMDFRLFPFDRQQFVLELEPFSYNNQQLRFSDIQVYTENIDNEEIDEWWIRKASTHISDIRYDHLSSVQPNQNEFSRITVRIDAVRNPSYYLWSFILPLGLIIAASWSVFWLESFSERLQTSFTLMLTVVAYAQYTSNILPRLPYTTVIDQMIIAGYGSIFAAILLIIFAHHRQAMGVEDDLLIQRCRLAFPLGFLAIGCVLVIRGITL
T6 sequence (P0C7B7 whole entry Q232A): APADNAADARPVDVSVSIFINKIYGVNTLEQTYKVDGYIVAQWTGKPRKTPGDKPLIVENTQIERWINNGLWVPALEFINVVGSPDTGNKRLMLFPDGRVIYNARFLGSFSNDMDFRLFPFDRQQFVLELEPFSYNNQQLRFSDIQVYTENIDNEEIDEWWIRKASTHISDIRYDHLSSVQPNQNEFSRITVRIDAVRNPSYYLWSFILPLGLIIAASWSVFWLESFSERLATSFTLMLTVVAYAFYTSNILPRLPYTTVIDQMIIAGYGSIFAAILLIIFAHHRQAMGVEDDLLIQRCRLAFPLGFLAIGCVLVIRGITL

What does the source list for NCCCC(=O)O [GABA, γ-aminobutyric acid]?
nH (Hill slope) (wild type ELIC [1]; GABA concentration–response): 2.5 ± 0.7; EC50 (wild type ELIC [1]; oocytes clamped at −60 mV, mean ± SEM, read-out: GABA pEC50 (converted)): 1.66 mM; EC50 (wild type ELIC [1]; read-out: GABA EC50): 1.6 mM; fold change in EC50 compared to wild type (F16′L ELIC; F16′L ELIC vs wild type): 32 fold; nH (F16′L ELIC; F16′L ELIC, GABA concentration–response): 1.6 ± 0.2; nH (F16′Y ELIC): 2.1 ± 0.3; nH (T6′A ELIC [2]): 2.1 ± 0.1; nH (F16′S ELIC [3]): 2.5 ± 0.6; response to application of 100 mM GABA (Q2′A ELIC): did not respond; nH (T6′S ELIC [4]): 2.7 ± 0.3; nH (F16′A ELIC [5]): 3.0 ± 0.5; nH (Q2′N ELIC [6]): 2.6 ± 1.3; nH (F16′W ELIC [7]): 3.6 ± 0.5; nH (F16′D ELIC [8]): 2.5 ± 0.3; fold increase in EC50 compared to wild type (F16′E ELIC [9]; F16′E ELIC vs wild type): 16 fold; nH (F16′E ELIC [9]; F16′E ELIC, GABA concentration–response): 1.3 ± 0.2; nH (F16′S/T6′S ELIC): 2.2 ± 0.7; nH (F16′T ELIC [10]): 1.8 ± 0.3; nH (F16′Q ELIC): 2.3 ± 0.6

What does the source list for C=C(C)[C@@H]1[C@H]2OC(=O)[C@@H]1[C@]1(O)C[C@H]3O[C@]34C(=O)O[C@H]2[C@]14C [PXN, Picrotoxinin]?
nH (F16′D ELIC [11]): 1.0 ± 0.2; inhibition of the GABA EC50 response (F16′S ELIC [12]; co-application of 100 μM PXN with GABA EC50): completely abolishes; nH (F16′S ELIC [12]; inhibition curve): 1.3 ± 0.3; nH (F16′A ELIC [13]): 1.0 ± 0.2; nH (F16′T ELIC [14]): 0.9 ± 0.1; nH (T6′S ELIC [15]): 1.3 ± 0.3; IC50 (wild type ELIC [16]): 72 µM; inhibition at 100 µM (wild type ELIC [16]; read-out: inhibition of the GABA EC50 response): ~50%; nH (wild type ELIC [16]; wild type ELIC, inhibition curve): 1.3 ± 0.3; nH (F16′E ELIC [17]): 0.6 ± 0.1; nH (Q2′N ELIC [18]): 1.6 ± 0.3; IC50 (GLIC): 2600 nM; nH (T6′A ELIC [19]): 1.8 ± 0.4; inhibition at 100 µM (F16′W ELIC [20]; co-application of 100 μM PXN with GABA EC50, read-out: inhibition of the GABA EC50 response): ~50%; nH (F16′W ELIC [20]; inhibition curve): 1.3 ± 0.3
